# Patent publication US9562082B2, “Production of glycoproteins with low N-glycolylneuraminic acid (Neu5Gc) content” (LEK Pharmaceuticals D.D., priority 2009, dated 2017)
# How the values were obtained:
# Assay type in all cases: cell-based, Chinese hamster
# Recombinant CHO cells [1] = test: Content of the most acidic isoforms 7 and 8 (degree of sialylation) of secreted glycoprotein by AEX; settings: for percentage of the most acidic isoforms: 0.75% (w/v) DMSO
# Protocol: Throughout the entire description, above and below and including the examples, unless explicitly stated otherwise, the degree of sialylation is given in % (w/w) and was calculated as follows. Since the inventor had not available a method to directly measure the degree of sialylation (%, w/w), she estimated same indirectly from the relative content of the most acidic isoforms of each glycoprotein. Since isoforms 7 and 8 (see next paragraph) are the most acidic ones, she figured out that an increase of isoforms 7 and 8 is an indicator for the increased degree of sialylation. The inventor measured the distribution of the isoforms of a particular glycoprotein (e.g., of darbepoetin alfa, which is a cytokine) with AEX (anion exchange chromatography). AEX is not a quantitative method. Therefore, the inventor split the histogram into three parts as follows: the most basic isoforms 1, 2, and 3, the middle acidic isoforms 4, 5, and 6, and the most acidic isoforms 7 and 8. […] Therefore, the inventor compared, for each glycoprotein tested, the content (%, w/w) of the most acidic isoforms resulting from media without and from media with the additives according to the invention. In case their content increased, the inventor concluded that the degree of sialylation had likewise increased. Therefore, the degree of sialylation in the present application is given as the relative content of the most acidic isoforms (%, w/w). The increase in the degree of sialylation (of a particular glycoprotein obtained from a host cell culture using a medium with the additives according to the present invention vs. that of said glycoprotein obtained from a host cell culture using a medium without the inventive additives) is given on the basis of the increase of the content of the most acidic isoforms (%) after cultivating the host cells in the presence vs. absence of said additives. Recombinant CHO cells expressing high titres of the glycosylated human glycoproteins were cultivated in suspension culture using rich in-house standard medium without additives according to the invention. After 2 weeks of passages, the cells were first harvested and subsequently inoculated into the same medium, however, supplemented with a range of DMSO concentrations from 0.25% to 1.50% (w/v). The effect of DMSO on growth, productivity, degree of sialylation, and Neu5Gc content was studied. “One factor at the time”-experiments with different DMSO concentrations at 37° C. and 33° C., respectively, were performed at first in an attempt to determine the DMSO concentration and temperature which are best to minimise the Neu5Gc content on the glycoproteins secreted. To study the interaction between the parameters (i) DMSO concentration, (ii) time of DMSO addition, and (iii) time of the temperature shift (from 37° C. to 33° C.), further experiments were performed with the Design-Expert/Design-Ease programme (Stat-Ease, Inc., Minneapolis, Minn., USA) using the response surface method. Parameters (i), (ii), and (iii) were chosen as numeric factors and the axial points were set slightly out of already known ranges in order to cover a wide design space. One replicate on axial points, one replicate on factorial points and 4 centre points were performed. The results were analysed using the Design of Expert (DOE) software (Design-Expert, Version 7.1). The results of the shake flask experiments were confirmed in the Biostat®B bioreactor (Sartorius, B. Braun Biotech International, Germany). Exponentially growing cells were taken from cell culture flasks having a surface area of 225 cm^2 (Corning®Costar®). A Biostat®B bioreactor with a working volume of 5 litres was inoculated with 2×10^5 cells/ml. […] Following glycoprotein purification, the isoform distribution of the immuno-affinity purified glycoproteins was determined by anion exchange chromatography (AEX). The chromatographic separation of various isoforms is based on the differences in their charges. […]
# Recombinant CHO cells [2] = test: Titre of secreted glycoprotein by ELISA
# Protocol: Cell viability was determined by the trypan blue exclusion method. The cell concentration was determined using a Vi-CELL™ Series Cell Viability Analyzer (Beckman Coulter, Fullerton, Calif., USA). Glucose, lactate, glutamine, and ammonia (NH4^+) concentrations were measured during the growth phase using a BioProfile Analyzer for mammalian cell culture (BioProfile 100 plus, Nova Biomedical, Waltham, USA). Additionally, oxygen and […] concentrations were monitored daily using pHOx (Stat Prophile pHOx Basic, Nova Biomedical, Waltham, USA). Secreted glycoprotein concentrations were quantified by enzyme linked immunosorbent assay (ELISA), and the titres were expressed in μg/ml.
# The concentration of the secreted glycoproteins was quantified using an enzyme linked immunosorbent assay kit from R&D Systems (R&D Systems, Inc., Minneapolis, Minn., USA) according to the manufacturer's instructions. Microplate wells, pre-coated with monoclonal (mouse) antibodies specific for the respective glycoproteins expressed were first incubated with standard blank samples and specimens. […] The absorbance of the coloured solution was measured photometrically at 450 nm (Micro plate reader, Tecan, Columbus, USA) and was proportional to the concentration of the glycoprotein in the sample.
# Recombinant CHO cells [3] = test: Specific productivity (Qp); settings: DMSO 0.75, temperature 37
# Protocol: According to the optimal range of the DMSO concentration, a numerical and graphical optimisation was performed using DOE software (FIG. 3). A minimal content of Neu5Gc and a maximal content of the most acidic isoforms were chosen as very important parameters, while increased titres and growth rates were weighted as medium important parameters. The ramps were extended a little over the limits. […] The specific productivity (Qp) was calculated following Equation 1 and expressed as pg of glycoprotein/[…]=(P2-P1)/((X2+X1)*(t2-t1)/2) Equation 1 (P2 and P1 are concentrations of secreted glycoprotein at the end and at the beginning of the repeated batches, respectively; X1 and X2 are cell concentrations at the corresponding time points t1 and t2).
structure (smiles),measurement,setting,value
"C[S+](C)[O-] [DMSO, dimethyl sulfoxide]","average content of the most acidic isoforms, all glycoproteins tested",Recombinant CHO cells [1]; 0.5% DMSO,1.31%
same,"average content of the most acidic isoforms, all glycoproteins tested",Recombinant CHO cells [1]; 0.75% DMSO,1.28%
same,"average content of the most acidic isoforms, all glycoproteins tested",Recombinant CHO cells [1]; 1% DMSO,1.21%
same,"average content of the most acidic isoforms, all glycoproteins tested",Recombinant CHO cells [1]; 1.25% DMSO,1.26%
same,"Isoforms 7&8, DOE point prediction","Recombinant CHO cells [1]; DMSO 0.75, temperature 37",1.21%
same,percentage of the most acidic isoforms,Recombinant CHO cells [1]; bioreactor batch process,about 2.2%
same,percentage of the most acidic isoforms,Recombinant CHO cells [1]; shake flask batch process,about 1.35%
same,"Titre, DOE point prediction","Recombinant CHO cells [2]; DMSO 0.75, temperature 37",65.56 µg/mL
same,titre,"Recombinant CHO cells [2]; darbepoetin alfa, with DMSO",~57 µg/mL
same,"Specific productivity, DOE point prediction",Recombinant CHO cells [3],2.43 pcd
